Assay results: US20250215071A1, “Novel Mcl-1 inhibitor and combination of Mcl-1 and a BH3 mimetic, such as a Bcl-2 inhibitor” (NETRIS PHARMA, priority 2022, published 2025)

Key:
[1] = system: caspase-9; assay: UNC5B-induced caspase-9 activity in HeLa UNC5B cells; assay type: cell-based, Human; conditions: Dox; 18 hours
Protocol: FIG. 5. UNC5B-mediated Mcl-1 degradation induces MOMP and caspase-9 activation. (A): UNC5B over-expression triggers Mitochondrial Outer Membrane Permeabilization (MOMP) in a COMMD2/CRL3 complex-dependent manner. Hela cells were transfected with scramble (siCTRL), COMMD2 (siCOMMD2-1) or RBX1 (siRBX1-1) siRNAs. 24 hours after transfection, cells were treated with Dox and after further 18 hours mitochondrial depolarization quantified by 5′,6,6′-tetrachloro-1,1′,3,3′-tetraethylbenzimi-dazolylcarbocyanine iodide (JC-1) dye staining, using NucleoCounter NC3000 (n=3, **** p<0.0001, ordinary two-way ANOVA with Tukey's multiple comparisons test). Values are given as means±SEM. (B,C,D): Apoptotic cell death induced by UNC5B over-expression requires caspase-9. HeLa UNC5B cells were transfected with scramble (siCTRL) or caspase-9 (siCASP9) siRNAs and 24 hours later treated with the indicated concentrations of Dox. Propidium iodide (PI)-positive cells were assessed in real-time up to 48 hours using Incucyte Zoom instrument (C) (n=[…], Kolmogorov-Smirnov test). DNA fragmentation was assessed by FACS analysis (D) and caspase-3 was measured using caspase-3 fluorometric kit (E), both 18 hours after treatment (n=[…], **** p<0.0001, ordinary two-way ANOVA with Šidák's multiple comparisons test). Values are given as means±SEM. […] HeLa UNC5B cells were treated with Dox and 18 hours later caspase-9 and -8 activities were assessed by fluorometric kit, using specific substrates (n=3, ^nsp>0.05, *p<0.05, Mann-Whitney test, one-tailed). […] 24 hours later, cells were treated with Dox and caspase-9 activity was measured by fluorometric kit (n=3, **** p<0.0001, ordinary two-way ANOVA with Tukey's multiple comparisons test). […] 18 hours after treatment, caspase-9 activity was assessed with the fluorometric kit (n=5, *p<0.05, ** p<0.01, *** p<0.001, **** p<0.0001, ordinary two-way ANOVA with Tukey's multiple comparisons test). […] Cells were then treated with Dox and Mcl-1 protein was evaluated by western blot. […]

[2] = system: caspase-3; assay: UNC5B-induced caspase-3 activity in HeLa UNC5B cells; assay type: cell-based, Human; conditions: doxycycline 2 μg/mL; 18 hours
Protocol: Stable Hela cells inducible for UNC5B (HeLa UNC5B) were treated with doxycycline (Dox) at 2 μg/mL, in combination with the indicated doses of the proteasome inhibitors MG132 and bortezomib (BTZ).
Caspase-3 and -9 activity assays were performed as described previously (Paradisi et al., 2013; Paradisi et al., 2009). Briefly, HCT116 and HeLa cells were seeded and treated as for DNA fragmentation assay. Cells were then collected and caspase-3/caspase 9 activity assays were performed using the Caspase-3/Caspase-9 Fluorometric Assay Kit (BioVision, Milpitas, CA, USA), according to the manufacturer's instructions. Caspase activity (activity/min/mg of protein) was calculated from a 1 h kinetic cycle reading on a spectrofluorometer (405 nm/510 nm, Infinite F500, Tecan, Männedorf, Switzerland).

Q: For CC(C)C[C@H](NC(=O)[C@H](Cc1ccccc1)NC(=O)c1cnccn1)B(O)O [bortezomib], which “UNC5B-induced caspase-9 activation” value [1] is on record?
A: Its value is “sufficient to prevent UNC5B-induced caspase-9 activation”.

Q: And the “UNC5B-induced caspase-3 activation” value [2]?
A: Its value is “suppressed”.
